The values below come from paper PMC12415777, “Dose-dependent modulation of hepatic cytochrome P450 enzymes by tenvermectin: implications for medication safety and combination therapy” (Frontiers in Veterinary Science, 2025).

What all share (assay type): biochemical
One test concerns T1, CYP3A1/2.
T1 construct: native enzymes in rat liver microsomes; testosterone 6beta-hydroxylation read-out
The test is described as follows: probe substrate conversion in rat liver microsomes, HPLC-MS/MS. The note with it: testosterone at about Km, NADPH regeneration system, 0.05 M Tris-HCl pH 7.4, 30 min; read-out: IC 50 / Positive control. The source says: probe substrate conversion in rat liver microsomes, HPLC-MS/MS on CYP3A1/2
For orientation: Liver microsomes are vesicles of endoplasmic reticulum, rich in cytochrome P450 enzymes.

For test [1], the target named is T2, CYP2B1 (Rattus norvegicus, UniProt P00176).
T2 construct: native enzyme in rat liver microsomes; benzyloxyresorufin O-dealkylation (BROD) read-out
T2 sequence (P00176 1-491): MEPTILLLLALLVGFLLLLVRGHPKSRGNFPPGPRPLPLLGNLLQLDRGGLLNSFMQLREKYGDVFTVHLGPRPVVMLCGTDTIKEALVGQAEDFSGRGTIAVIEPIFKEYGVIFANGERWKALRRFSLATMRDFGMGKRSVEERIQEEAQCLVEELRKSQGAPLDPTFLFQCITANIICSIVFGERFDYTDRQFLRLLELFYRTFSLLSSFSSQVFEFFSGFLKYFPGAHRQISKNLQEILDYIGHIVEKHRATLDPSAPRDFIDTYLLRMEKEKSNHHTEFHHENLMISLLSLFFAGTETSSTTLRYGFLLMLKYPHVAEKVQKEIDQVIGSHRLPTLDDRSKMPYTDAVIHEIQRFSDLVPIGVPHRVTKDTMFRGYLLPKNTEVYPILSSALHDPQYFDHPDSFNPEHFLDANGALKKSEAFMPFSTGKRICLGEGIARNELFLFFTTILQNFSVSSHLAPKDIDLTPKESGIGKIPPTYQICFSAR
The experiment in a line: Michaelis-Menten fit in rat liver microsomes, HPLC-fluorescence of resorufin. The conditions noted are these: NADPH regeneration system, 0.05 M Tris-HCl pH 7.4, 15 min, 5 μM α-BNF added to block CYP1A1/2.

In a further test the target is T3, CYP2D2 (Rattus norvegicus, UniProt P10634).
T3 construct: gene Cyp2d26; native enzyme in rat liver microsomes; dextromethorphan to dextrorphan read-out
T3 sequence (P10634 1-500): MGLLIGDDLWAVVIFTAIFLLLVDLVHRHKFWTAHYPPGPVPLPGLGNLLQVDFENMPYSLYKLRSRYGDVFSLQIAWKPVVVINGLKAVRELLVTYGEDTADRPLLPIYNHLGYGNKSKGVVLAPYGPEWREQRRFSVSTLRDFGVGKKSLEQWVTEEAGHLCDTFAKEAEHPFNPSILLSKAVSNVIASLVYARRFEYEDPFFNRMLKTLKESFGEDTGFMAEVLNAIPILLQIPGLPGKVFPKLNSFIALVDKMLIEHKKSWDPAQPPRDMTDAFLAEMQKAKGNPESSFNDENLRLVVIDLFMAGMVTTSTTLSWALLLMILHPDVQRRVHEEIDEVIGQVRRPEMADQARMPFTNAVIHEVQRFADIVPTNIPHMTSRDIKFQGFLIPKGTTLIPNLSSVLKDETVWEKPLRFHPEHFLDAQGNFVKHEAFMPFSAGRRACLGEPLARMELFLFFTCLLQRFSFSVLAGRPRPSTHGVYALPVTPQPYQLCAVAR
The experiment in a line: Michaelis-Menten fit in rat liver microsomes, HPLC-fluorescence of dextrorphan. The note with it: NADPH regeneration system, 0.05 M Tris-HCl pH 7.4, 30 min.

Test [2] addresses T2, CYP2B1. The test is described as follows: probe substrate conversion in rat liver microsomes, HPLC-fluorescence. The conditions noted are these: benzyloxyresorufin at about Km, 5 μM α-BNF added to block CYP1A1/2, NADPH regeneration system, 0.05 M Tris-HCl pH 7.4, 15 min; read-out: IC 50 / Positive control. The source says:
probe substrate conversion in rat liver microsomes, HPLC-fluorescence on CYP2B1

Another test relates to T4, CYP1A1/2.
T4 construct: native enzymes in rat liver microsomes; ethoxyresorufin O-deethylation (EROD) read-out
The test is described as above. The conditions noted are these: ethoxyresorufin at about Km, NADPH regeneration system, 0.05 M Tris-HCl pH 7.4, 15 min; read-out: IC 50 / Positive control. The source says: probe substrate conversion in rat liver microsomes, HPLC-fluorescence on CYP1A1/2

On to `CC(=O)N1CCN(c2ccc(OCC3COC(Cn4ccnc4)(c4ccc(Cl)cc4Cl)O3)cc2)CC1` (centres unmarked) [KCZ], for which, in the test on CYP3A1/2, the IC50 amounted to 470 nM.
For the compound `O=c1ccc2nc3ccc(OCc4ccccc4)cc3oc-2c1` [BR], the Km result on CYP2B1 [1] was “(B) benzyloxyresorufin (BR) (CYP2B1)”.
Turning to `COc1ccc2c(c1)[C@]13CCCC[C@@H]1[C@H](C2)N(C)CC3` [DOM], the Km result at CYP2D2 is on record as “(D) dextromethorphan (DOM) (CYP2D2)”.
Regarding `CC(C)(C(=O)c1cccnc1)c1cccnc1` [MTY], the IC50 at CYP2B1 [2] was 4310 nM.
Regarding `O=c1cc(-c2ccccc2)oc2c1ccc1ccccc12` [α-BNF], in the test with CYP1A1/2, the IC50 was 1820 nM.
